Measured values from ChEMBL document CHEMBL5108045, “Identification and Utilization of a Chemical Probe to Interrogate the Roles of PIKfyve in the Lifecycle of β-Coronaviruses” (J Med Chem, 2022).
Active and inactive are the calls of the source. The rule behind the calls is not given here.

Key:
[1] = system: HEK-293T; assay: (§1) Inhibition of His-6 tagged SARS-CoV-2 spike protein uptake in ACE2 overexpressing HEK293T cells at 1 uM incubated for 30 mins by DAPI staining based confocal microscopy analysis; format: functional; conditions: Homo sapiens
[2] = as §1; format: functional; conditions: Homo sapiens, HEK-293T, 0.5 h

Structure (SMILES)	inhibition [1]	inhibition at 1 µM [2]
Nc1ncc2c(n1)-c1c([nH]c3ccc(-c4ccc(F)cc4)cc13)CCC2	Active	–
CC(C)(O)C#Cc1ccc2[nH]c3c(c2c1)-c1nc(N)ncc1CCC3	–	< 10%
CN(C)CC#Cc1ccc2[nH]c3c(c2c1)-c1nc(N)ncc1CCC3	Active	–
Cc1cccc(/C=N/Nc2cc(N3CCOCC3)nc(OCCc3ccccn3)n2)c1	Active	–
